According to patent US20080058213A1, “Benzoxazole Compounds” (priority 2004, published 2008):

Columns and labels:
Assay type in all cases: in vivo
[1] = system: barnyard grass (Echinochloa crusgalli); assay: Weed control test for paddy field (Test Example 1): barnyard grass; details: paddy pots, treated at 1.0 leaf stage of barnyard grass, examined after 3 weeks
From the text: (§1) Paddy field soil was filled in 1/10,000 are pots, kneaded with adequate amounts of water and chemical fertilizer, seeded with barnyard grass (Echinochloa crusgalli), Monochoria (Monochoria vaginalis), Japanese bulrush (Scirpus juncoides) and flat sedge (Cyperus serotinus), and further transplanted with 2.0 leaf stage of rice plant. The pots were maintained under the water-filled condition to a depth of 3 cm.
(§2) Wettable powders containing the compounds (1) as identified in Table 1, which were formulated following Production Example 2, were diluted with adequate amount of water and applied to the pots dropwise with pippet at a prescribed dose of the active ingredients per are, at 1.0 leaf stage of the barnyard grass.
(§3) After placing the pots in a glasshouse which was controlled at an average temperature of 25° C. for 3 weeks, herbicidal effect was examined.
(§4) Evaluation of the herbicidal effect is shown in the following six grades, by comparing the condition of untreated control and growth inhibition (%): • 0: 0%-less than 20% • 1: 20%-less than 40% • 2: 40%-less than 60% • 3: 60%-less than 80% • 4: 80%-less than 100% • 5: 100%.

[2] = system: Monochoria (Monochoria vaginalis); assay: Weed control test for paddy field (Test Example 1): Monochoria; details: paddy pots, treated at 1.0 leaf stage of barnyard grass, examined after 3 weeks
From the text: as §1, §2, §3, §4

[3] = system: Japanese bulrush (Scirpus juncoides); assay: Weed control test for paddy field (Test Example 1): Japanese bulrush; details: paddy pots, treated at 1.0 leaf stage of barnyard grass, examined after 3 weeks
From the text: as §1, §2, §3, §4

[4] = system: flat sedge (Cyperus serotinus); assay: Weed control test for paddy field (Test Example 1): flat sedge; details: paddy pots, treated at 1.0 leaf stage of barnyard grass, examined after 3 weeks
From the text: as §1, §2, §3, §4

rice plant = assay: Weed control test for paddy field (Test Example 1): phytotoxicity to rice plant; details: paddy pots, treated at 1.0 leaf stage of barnyard grass, examined after 3 weeks
From the text: as §1, §2, §3
(§5) Evaluation of phytotoxicity is shown in the following six grades, as compared with the condition of untreated control: • 0: normal growth • 1: little damaged • 2: low damaged • 3: medium damaged • 4: serious damaged • 5: complete killed.

[5] = system: southern crabgrass (Digitaria ciliaris); assay: Soil treatment test for upland field (Test Example 2): southern crabgrass; details: soil treatment before germination, examined after 3 weeks
From the text: as §4
(§6) Upland field soil was filled in 1/3,000 are pots, seeded with southern crabgrass (Digitaria ciliaris), common lambsquaters (Chenopodium album), slender amaranth (Amaranthus viridis), common purslane (Portulaca oleracea), velvetleaf (Abutilon theophrasti), wheat, corn and soybean. The seeds were covered up with the soil.
(§7) Wettable powders containing the object compounds (1) as identified in Table 1, which were formulated following Preparation Example 2, were diluted with adequate amount of water to secure the prescribed dose of the active ingredient, and uniformly sprayed onto the surface soil layer after the seeding and before germination of the weeds, at an application water of 15 liters per are.
(§8) After placing the test pots in a glasshouse which was kept at an average temperature of 25° C. for 3 weeks, the herbicidal effect was examined.
(§9) Evaluations of the herbicidal effect and phytotoxicity were made in the manner similar to those in the above Test Example 1.

[6] = system: common lambsquaters (Chenopodium album); assay: Soil treatment test for upland field (Test Example 2): common lambsquaters; details: soil treatment before germination, examined after 3 weeks
From the text: as §4, §6, §7, §8, §9

[7] = system: slender amaranth (Amaranthus viridis); assay: Soil treatment test for upland field (Test Example 2): slender amaranth; details: soil treatment before germination, examined after 3 weeks
From the text: as §4, §6, §7, §8, §9

[8] = system: common purslane (Portulaca oleracea); assay: Soil treatment test for upland field (Test Example 2): common purslane; details: soil treatment before germination, examined after 3 weeks
From the text: as §4, §6, §7, §8, §9

[9] = system: velvetleaf (Abutilon theophrasti); assay: Soil treatment test for upland field (Test Example 2): velvetleaf; details: soil treatment before germination, examined after 3 weeks
From the text: as §4, §6, §7, §8, §9

wheat [10] = assay: Soil treatment test for upland field (Test Example 2): phytotoxicity to wheat; details: soil treatment before germination, examined after 3 weeks
From the text: as §5, §6, §8

corn [11] = assay: Soil treatment test for upland field (Test Example 2): phytotoxicity to corn; details: soil treatment before germination, examined after 3 weeks
From the text: as §5, §6, §8

soybean [12] = assay: Soil treatment test for upland field (Test Example 2): phytotoxicity to soybean; details: soil treatment before germination, examined after 3 weeks
From the text: as §5, §6, §8

southern crabgrass = assay: Foliage treatment test for upland field (Test Example 3): southern crabgrass; details: foliage treatment at 1.0-2.0 leaf stage of southern crabgrass, examined after 3 weeks
From the text: as §4
(§10) Compost mixed soil was filled in 1/3,000 are pots, seeded with southern crabgrass, common lambsquaters, slender amaranth, common purslane, velvetleaf, wheat, corn and soybean. The seeds were covered up with the soil and cultured in a glasshouse kept at 25° C. on the average.
(§11) Wettable powders containing the object compounds (1) as identified in Table 1, which were formulated following Preparation Example 2, were diluted with water to the prescribed dose of the active ingredient, and uniformly sprayed onto the weeds at 1.0-2.0 leaf stage of the southern crabgrass at an application water of 15 liters per are.
(§12) After placing the test pots in a grasshouse kept at 25° C. on the average for 3 weeks, the herbicidal effect was examined.
(§13) Evaluation of the herbicidal effect was conducted in the similar manner to Test Example 1.

common lambsquaters = assay: Foliage treatment test for upland field (Test Example 3): common lambsquaters; details: foliage treatment at 1.0-2.0 leaf stage of southern crabgrass, examined after 3 weeks
From the text: as §4, §10, §11, §12, §13

slender amaranth = assay: Foliage treatment test for upland field (Test Example 3): slender amaranth; details: foliage treatment at 1.0-2.0 leaf stage of southern crabgrass, examined after 3 weeks
From the text: as §4, §10, §11, §12, §13

common purslane = assay: Foliage treatment test for upland field (Test Example 3): common purslane; details: foliage treatment at 1.0-2.0 leaf stage of southern crabgrass, examined after 3 weeks
From the text: as §4, §10, §11, §12, §13

velvetleaf = assay: Foliage treatment test for upland field (Test Example 3): velvetleaf; details: foliage treatment at 1.0-2.0 leaf stage of southern crabgrass, examined after 3 weeks
From the text: as §4, §10, §11, §12, §13

wheat [13] = assay: Foliage treatment test for upland field (Test Example 3): phytotoxicity to wheat; details: foliage treatment at 1.0-2.0 leaf stage of southern crabgrass, examined after 3 weeks
Description: as §5, §10, §12

corn [14] = assay: Foliage treatment test for upland field (Test Example 3): phytotoxicity to corn; details: foliage treatment at 1.0-2.0 leaf stage of southern crabgrass, examined after 3 weeks
Description: as §5, §10, §12

soybean [15] = assay: Foliage treatment test for upland field (Test Example 3): phytotoxicity to soybean; details: foliage treatment at 1.0-2.0 leaf stage of southern crabgrass, examined after 3 weeks
Description: as §5, §10, §12

For `CCOC/C(=C\c1cccc(C(F)(F)F)c1)c1nc2cc(Cl)ccc2o1` [Compound 11], the “Herbicidal Effect Barnyard grass” value ([1]; dose 2.5 g ai/a) was 5 (100%), the “Herbicidal Effect Barnyard grass” value ([1]; dose 5 g ai/a) was 5 (100%) and the “Herbicidal Effect Monochoria vaginalis” value ([2]; dose 2.5 g ai/a) was 5 (100%). For the same molecule, the “Herbicidal Effect Monochoria vaginalis” value ([2]; dose 5 g ai/a) was 5 (100%), the “Herbicidal Effect Japanese bulrush” value ([3]; dose 2.5 g ai/a) was 4 (80%-less than 100%) and the “Herbicidal Effect Japanese bulrush” value ([3]; dose 5 g ai/a) was 5 (100%). The “Herbicidal Effect Flat sedge” value ([4]; dose 2.5 g ai/a) was 3 (60%-less than 80%), the “Herbicidal Effect Flat sedge” value ([4]; dose 5 g ai/a) was 5 (100%) and the “Phytotoxicity Rice plant” value (rice plant; dose 2.5 g ai/a) was 1. The “Phytotoxicity Rice plant” value (rice plant; dose 5 g ai/a) was 1, the “Herbicidal Effect southern crabgrass” value ([5]; dose 2.5 g ai/a) was 5 (100%) and the “Herbicidal Effect southern crabgrass” value ([5]; dose 5 g ai/a) was 5 (100%). The “Herbicidal Effect common lambsquaters” value ([6]; dose 2.5 g ai/a) was 5 (100%), the “Herbicidal Effect common lambsquaters” value ([6]; dose 5 g ai/a) was 5 (100%) and the “Herbicidal Effect slender amaranth” value ([7]; dose 2.5 g ai/a) was 5 (100%). The “Herbicidal Effect slender amaranth” value ([7]; dose 5 g ai/a) was 5 (100%), the “Herbicidal Effect common purslane” value ([8]; dose 2.5 g ai/a) was 5 (100%) and the “Herbicidal Effect common purslane” value ([8]; dose 5 g ai/a) was 5 (100%). For the same molecule, the “Herbicidal Effect velvetleaf” value ([9]; dose 2.5 g ai/a) was 3 (60%-less than 80%), the “Herbicidal Effect velvetleaf” value ([9]; dose 5 g ai/a) was 4 (80%-less than 100%) and the Phytotoxicity wheat (wheat [10]; dose 2.5 g ai/a) was 0. The Phytotoxicity wheat (wheat [10]; dose 5 g ai/a) was 0, the Phytotoxicity corn (corn [11]; dose 2.5 g ai/a) was 1 and the Phytotoxicity corn (corn [11]; dose 5 g ai/a) was 1. For the same molecule, the Phytotoxicity soybean (soybean [12]; dose 2.5 g ai/a) was 0, the Phytotoxicity soybean (soybean [12]; dose 5 g ai/a) was 0 and the “Herbicidal Effect southern crabgrass” value (southern crabgrass; dose 2.5 g ai/a) was 5 (100%). For the same molecule, the “Herbicidal Effect southern crabgrass” value (southern crabgrass; dose 5 g ai/a) was 5 (100%), the “Herbicidal Effect Common lambsquatters” value (common lambsquaters; dose 2.5 g ai/a) was 5 (100%) and the “Herbicidal Effect Common lambsquatters” value (common lambsquaters; dose 5 g ai/a) was 5 (100%). For the same molecule, the “Herbicidal Effect slender amaranth” value (slender amaranth; dose 2.5 g ai/a) was 5 (100%), the “Herbicidal Effect slender amaranth” value (slender amaranth; dose 5 g ai/a) was 5 (100%) and the “Herbicidal Effect common purslane” value (common purslane; dose 2.5 g ai/a) was 5 (100%). The “Herbicidal Effect common purslane” value (common purslane; dose 5 g ai/a) was 5 (100%), the “Herbicidal Effect velvetleaf” value (velvetleaf; dose 2.5 g ai/a) was 5 (100%) and the “Herbicidal Effect velvetleaf” value (velvetleaf; dose 5 g ai/a) was 5 (100%). The Phytotoxicity wheat (wheat [13]; dose 2.5 g ai/a) was 1, the Phytotoxicity wheat (wheat [13]; dose 5 g ai/a) was 1 and the Phytotoxicity corn (corn [14]; dose 2.5 g ai/a) was 2. It also gave a Phytotoxicity corn (corn [14]; dose 5 g ai/a) of 1, a Phytotoxicity soybean (soybean [15]; dose 2.5 g ai/a) of 2 and a Phytotoxicity soybean (soybean [15]; dose 5 g ai/a) of 1.

In the case of `COCC(=Cc1cccc(C(F)(F)F)c1)c1nc2cc(Br)ccc2o1` [Compound 39], the “Herbicidal Effect Barnyard grass” value ([1]; dose 2.5 g ai/a) is reported as 5 (100%), the “Herbicidal Effect Barnyard grass” value ([1]; dose 5 g ai/a) is reported as 5 (100%) and the “Herbicidal Effect Monochoria vaginalis” value ([2]; dose 2.5 g ai/a) is reported as 5 (100%). For the same molecule, the “Herbicidal Effect Monochoria vaginalis” value ([2]; dose 5 g ai/a) was 5 (100%), the “Herbicidal Effect Japanese bulrush” value ([3]; dose 2.5 g ai/a) was 3 (60%-less than 80%) and the “Herbicidal Effect Japanese bulrush” value ([3]; dose 5 g ai/a) was 4 (80%-less than 100%). For the same molecule, the “Herbicidal Effect Flat sedge” value ([4]; dose 2.5 g ai/a) was 2 (40%-less than 60%), the “Herbicidal Effect Flat sedge” value ([4]; dose 5 g ai/a) was 3 (60%-less than 80%) and the “Phytotoxicity Rice plant” value (rice plant; dose 2.5 g ai/a) was 0. For the same molecule, the “Phytotoxicity Rice plant” value (rice plant; dose 5 g ai/a) was 0, the “Herbicidal Effect southern crabgrass” value ([5]; dose 2.5 g ai/a) was 4 (80%-less than 100%) and the “Herbicidal Effect southern crabgrass” value ([5]; dose 5 g ai/a) was 5 (100%). For the same molecule, the “Herbicidal Effect common lambsquaters” value ([6]; dose 2.5 g ai/a) was 5 (100%), the “Herbicidal Effect common lambsquaters” value ([6]; dose 5 g ai/a) was 5 (100%) and the “Herbicidal Effect slender amaranth” value ([7]; dose 2.5 g ai/a) was 5 (100%). The “Herbicidal Effect slender amaranth” value ([7]; dose 5 g ai/a) was 5 (100%), the “Herbicidal Effect common purslane” value ([8]; dose 2.5 g ai/a) was 5 (100%) and the “Herbicidal Effect common purslane” value ([8]; dose 5 g ai/a) was 5 (100%). The “Herbicidal Effect velvetleaf” value ([9]; dose 2.5 g ai/a) was 4 (80%-less than 100%), the “Herbicidal Effect velvetleaf” value ([9]; dose 5 g ai/a) was 5 (100%) and the Phytotoxicity wheat (wheat [10]; dose 2.5 g ai/a) was 0. For the same molecule, the Phytotoxicity wheat (wheat [10]; dose 5 g ai/a) was 0, the Phytotoxicity corn (corn [11]; dose 2.5 g ai/a) was 0 and the Phytotoxicity corn (corn [11]; dose 5 g ai/a) was 1. The Phytotoxicity soybean (soybean [12]; dose 2.5 g ai/a) was 0, the Phytotoxicity soybean (soybean [12]; dose 5 g ai/a) was 1 and the “Herbicidal Effect southern crabgrass” value (southern crabgrass; dose 2.5 g ai/a) was 4 (80%-less than 100%). The “Herbicidal Effect southern crabgrass” value (southern crabgrass; dose 5 g ai/a) was 5 (100%), the “Herbicidal Effect Common lambsquatters” value (common lambsquaters; dose 2.5 g ai/a) was 5 (100%) and the “Herbicidal Effect Common lambsquatters” value (common lambsquaters; dose 5 g ai/a) was 5 (100%). The “Herbicidal Effect slender amaranth” value (slender amaranth; dose 2.5 g ai/a) was 5 (100%), the “Herbicidal Effect slender amaranth” value (slender amaranth; dose 5 g ai/a) was 5 (100%) and the “Herbicidal Effect common purslane” value (common purslane; dose 2.5 g ai/a) was 5 (100%). For the same molecule, the “Herbicidal Effect common purslane” value (common purslane; dose 5 g ai/a) was 5 (100%), the “Herbicidal Effect velvetleaf” value (velvetleaf; dose 2.5 g ai/a) was 4 (80%-less than 100%) and the “Herbicidal Effect velvetleaf” value (velvetleaf; dose 5 g ai/a) was 5 (100%). The Phytotoxicity wheat (wheat [13]; dose 2.5 g ai/a) was 0, the Phytotoxicity wheat (wheat [13]; dose 5 g ai/a) was 1 and the Phytotoxicity corn (corn [14]; dose 2.5 g ai/a) was 0. The Phytotoxicity corn (corn [14]; dose 5 g ai/a) was 1, the Phytotoxicity soybean (soybean [15]; dose 2.5 g ai/a) was 1 and the Phytotoxicity soybean (soybean [15]; dose 5 g ai/a) was 1.
